# Laboratory results from PubChem BioAssay (NCI).
#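 Interpolation was linear, between the two tested concentrations surrounding the appropriate level; five concentrations were tested over 48 hours in 96-well plates. At the TGI there is no net growth.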
# Assays:
# Experiment in all cases: growth of human tumour cells (NCI), 48 h
# NCI-H522 lung = system: NCI-H522 lung
# OVCAR-4 ovarian = system: OVCAR-4 ovarian
# EKVX NSCLC = system: EKVX NSCLC
# SF-539 CNS = system: SF-539 CNS
# A549 NSCLC = system: A549 NSCLC
# SK-MEL-28 melanoma = system: SK-MEL-28 melanoma
# K-562 leukemia = system: K-562 leukemia
# HL-60(TB) leukemia = system: HL-60(TB) leukemia
# SNB-75 CNS = system: SNB-75 CNS
# HCT-15 colon = system: HCT-15 colon
# MCF7 breast = system: MCF7 breast
# MDA-N = system: MDA-N
Compound,TGI (NCI-H522 lung),TGI (OVCAR-4 ovarian),TGI (EKVX NSCLC),TGI (SF-539 CNS),TGI (A549 NSCLC),TGI (SK-MEL-28 melanoma),TGI (K-562 leukemia),TGI (HL-60(TB) leukemia),TGI (SNB-75 CNS),TGI (HCT-15 colon),TGI (MCF7 breast),TGI (MDA-N)
Cc1ccc(S(=O)(=O)N/N=C/c2oc(-c3ccccc3Cl)c(-c3ccccc3Cl)c2[N+](=O)[O-])cc1,26 µM,> 100 µM,> 100 µM,46.1 µM,> 100 µM,62.9 µM,> 100 µM,39.9 µM,–,–,–,–
Cc1ccc(NC(=O)C(=O)C2NC(=S)NC2=O)c([N+](=O)[O-])c1 (stereo unspecified),> 100 µM,> 100 µM,> 100 µM,> 100 µM,> 100 µM,> 100 µM,> 100 µM,> 100 µM,> 100 µM,> 100 µM,–,–
Cn1c(=O)c2c(ncn2CCSS(=O)(=O)O)n(C)c1=O,> 100 µM,> 100 µM,> 100 µM,> 100 µM,> 100 µM,> 100 µM,> 100 µM,–,> 100 µM,> 100 µM,> 100 µM,> 100 µM
COc1cc(C2c3[nH]c4ccc(F)cc4c3C[C@H]3COC(=O)N23)cc(OC)c1O (stereo partly specified),35.5 µM,79.7 µM,92.3 µM,11.4 µM,28.3 µM,33.6 µM,> 100 µM,38.1 µM,8.84 µM,25.2 µM,> 100 µM,–
COc1cc(CNC(=O)[C@H](Cc2ccc(O)cn2)NC(C)=O)cc(OC)c1,> 100 µM,> 100 µM,> 100 µM,> 100 µM,> 100 µM,> 100 µM,> 100 µM,> 100 µM,–,> 100 µM,> 100 µM,> 100 µM
CCOP(=O)(OCC)/C(C#N)=C/c1ccc[nH]1,> 100 µM,> 100 µM,–,> 100 µM,> 100 µM,> 100 µM,> 100 µM,> 100 µM,> 100 µM,> 100 µM,–,–
COc1ccccc1-c1nc2ccccc2c(=O)[nH]1,–,> 100 µM,> 100 µM,–,> 100 µM,–,–,–,> 100 µM,> 100 µM,> 100 µM,> 100 µM
NC(CCCCN=Cc1nc(-c2ccccc2)oc1O)C(=O)O (stereo unspecified),> 100 µM,> 100 µM,> 100 µM,> 100 µM,> 100 µM,> 100 µM,> 100 µM,> 100 µM,> 100 µM,> 100 µM,–,–
O=c1[nH]c(=O)n(C2CC(O)C(CO)O2)cc1C#Cc1cc(C(F)(F)F)cc(C(F)(F)F)c1 (stereo unspecified),> 81.5 µM,> 100 µM,> 100 µM,> 90.9 µM,> 100 µM,> 100 µM,> 100 µM,> 100 µM,> 67.1 µM,> 100 µM,–,–
CCn1c(-c2ccccc2)nc2c1C(=O)c1ccccc1C2=O,43 µM,30 µM,–,> 100 µM,> 100 µM,> 100 µM,> 100 µM,> 100 µM,–,44.1 µM,> 100 µM,36.9 µM
OCCCCn1cc(Cn2ncc3c(SCc4ccccc4)ncnc32)nn1,> 100 µM,> 100 µM,> 100 µM,> 100 µM,> 100 µM,> 100 µM,> 100 µM,–,> 100 µM,> 100 µM,> 100 µM,39.2 µM
COc1ccc(CC2NCCc3cc(OC)c(OC)cc32)cc1 (stereo unspecified),> 100 µM,> 100 µM,> 100 µM,> 100 µM,> 100 µM,> 100 µM,–,> 100 µM,> 100 µM,> 100 µM,–,–
C[C@@H]1OC(=O)C[C@H]2CC(=O)N(CCC3CN(S(=O)(=O)C(F)(F)F)c4ccc(Cc5ccc6c(c5)C(CCN5C[C@H]7[C@@H](CC(=O)O[C@H]7C)CC5=O)CN6S(=O)(=O)C(F)(F)F)cc43)C[C@@H]21 (stereo partly specified),–,> 100 µM,> 100 µM,1.84 µM,> 100 µM,> 100 µM,> 100 µM,–,> 100 µM,> 100 µM,> 100 µM,–
O=C(Nc1nncs1)NS(=O)(=O)n1cnc2ccccc21,> 100 µM,> 100 µM,> 100 µM,> 100 µM,> 100 µM,> 100 µM,–,> 100 µM,> 100 µM,> 100 µM,–,> 100 µM
CN(C)CCCNC(=O)c1cc(NC(=O)c2cc(NC(=O)[C@H]3C[C@@H]3C(=O)Nc3cc(C(=O)Nc4cc(C(=O)NCCCN(C)C)n(C)c4)n(C)c3)cn2C)cn1C,> 100 µM,> 100 µM,> 100 µM,> 100 µM,> 100 µM,–,> 100 µM,> 100 µM,> 100 µM,> 100 µM,> 100 µM,–
c1nc(SSc2ncnc3nc[nH]c23)c2[nH]cnc2n1,> 100 µM,> 100 µM,> 100 µM,> 100 µM,> 100 µM,> 100 µM,> 100 µM,> 100 µM,> 100 µM,> 100 µM,–,–
CCN(CC)CCNc1ccc2ncn3c4c(OC)cccc4c(=O)c1c23,20.7 µM,15.4 µM,17.7 µM,22.8 µM,27.6 µM,21.7 µM,23.3 µM,–,24.5 µM,19.2 µM,–,17.1 µM
O=c1oc2cc(O)ccc2cc1-c1nc2ccccc2s1,–,> 100 µM,85.9 µM,46.6 µM,55.1 µM,> 100 µM,> 100 µM,55.6 µM,–,> 100 µM,67 µM,49.9 µM
CC(C)CCNC(=O)c1ccc(CNC(=O)/C=C/c2csc(-c3ccccc3)n2)cc1,> 100 µM,> 100 µM,> 100 µM,> 100 µM,> 100 µM,> 100 µM,> 100 µM,–,41.8 µM,> 100 µM,> 100 µM,> 100 µM
O=C1c2ccccc2C(=O)C2C3c4ccccc4C(c4ccccc43)C12 (stereo unspecified),> 100 µM,–,68.5 µM,25.4 µM,> 100 µM,> 100 µM,32.2 µM,–,42.7 µM,> 100 µM,–,–
CC(C)C(Sc1nc(-c2ccccc2)c(-c2ccccc2)[nH]1)C(=O)N/N=C/c1ccc([N+](=O)[O-])cc1 (stereo unspecified),32.4 µM,80.5 µM,65.6 µM,36.5 µM,66.3 µM,30.6 µM,–,33.5 µM,42.3 µM,36.5 µM,–,–

Compound,TGI (NCI-H522 lung),TGI (OVCAR-4 ovarian),TGI (EKVX NSCLC),TGI (SF-539 CNS),TGI (A549 NSCLC),TGI (SK-MEL-28 melanoma),TGI (K-562 leukemia),TGI (HL-60(TB) leukemia),TGI (SNB-75 CNS),TGI (HCT-15 colon),TGI (MCF7 breast),TGI (MDA-N)
Nc1ccc(C(=O)NN2C(=O)C(Cl)C2c2ccc([N+](=O)[O-])cc2)cc1 (stereo unspecified),3.21 µM,26.4 µM,24.4 µM,25.6 µM,25.8 µM,20.1 µM,36.2 µM,4.65 µM,24.5 µM,23.6 µM,–,–
Fc1ccc(NCn2nc(COc3ccccc3Cl)n(/N=C/c3ccc(-c4ccc(Cl)cc4Cl)o3)c2=S)cc1Cl,> 100 µM,> 100 µM,> 100 µM,> 100 µM,–,> 100 µM,43.6 µM,48.9 µM,–,> 100 µM,> 100 µM,> 100 µM
COc1ccc(N=Nc2c(C)c(C#N)c(=S)n(C3OC(COC(C)=O)C(OC(C)=O)C(OC(C)=O)C3OC(C)=O)c2-c2ccccc2)cc1 (stereo unspecified),–,12.1 µM,–,–,29.7 µM,20.3 µM,> 100 µM,> 100 µM,–,77.2 µM,17.5 µM,22.9 µM
CC(C)[Si](OCC1CC(C[C@H]2CC(C[C@H]3C[C@@H](CO[Si](C(C)C)(C(C)C)C(C)C)OC(C)(C)O3)OC(C)(C)O2)OC(C)(C)O1)(C(C)C)C(C)C (stereo partly specified),> 100 µM,> 100 µM,> 100 µM,> 100 µM,> 100 µM,> 100 µM,> 100 µM,> 100 µM,> 100 µM,–,–,–
COP(=O)(OC)C(O)/C=C(\Cl)c1ccc(Cl)cc1 (stereo unspecified),> 100 µM,> 100 µM,> 100 µM,> 100 µM,> 100 µM,> 100 µM,> 100 µM,> 100 µM,> 100 µM,> 100 µM,> 100 µM,–
O=C1SC(c2ccccc2)(c2ccccc2)c2ccccc21,> 100 µM,> 100 µM,> 100 µM,> 100 µM,> 100 µM,> 100 µM,> 100 µM,> 100 µM,> 100 µM,> 100 µM,–,–
Cc1cc(NS(=O)(=O)c2ccc(NC(=O)c3cccc4cc5ccccc5nc34)cc2)no1,33.8 µM,39.7 µM,90.9 µM,33.3 µM,56.2 µM,33.1 µM,50.6 µM,–,41.9 µM,35.7 µM,–,–
CC(=O)N1C(C(=O)NNc2ccccc2)CSC1c1ccccc1 (stereo unspecified),> 100 µM,> 100 µM,> 100 µM,> 100 µM,> 100 µM,–,> 100 µM,–,> 100 µM,> 100 µM,> 100 µM,> 100 µM
O=C(O)C(Cc1cnc[nH]1)N=Cc1nc(-c2ccccc2)oc1O (stereo unspecified),> 100 µM,> 100 µM,> 100 µM,> 100 µM,> 100 µM,> 100 µM,> 100 µM,> 100 µM,> 100 µM,> 100 µM,–,–
CC(=O)OCC1OC(n2c3c(cc(C#N)c2=S)CCCCCC3)C(OC(C)=O)C(OC(C)=O)C1OC(C)=O (stereo unspecified),> 100 µM,> 100 µM,–,> 100 µM,> 100 µM,> 100 µM,> 100 µM,> 100 µM,> 100 µM,> 100 µM,> 100 µM,–
Cc1ccc(S(=O)C[C@@]2(C(F)F)NC(=O)NC2=O)cc1 (stereo partly specified),> 100 µM,> 100 µM,> 100 µM,–,> 100 µM,> 100 µM,> 100 µM,> 100 µM,> 100 µM,> 100 µM,–,–
COc1cc2c(oc(=O)c3cc4ccoc4c(OC)c32)c2cccc(O)c12,> 100 µM,> 100 µM,> 100 µM,> 100 µM,> 100 µM,> 100 µM,> 100 µM,> 100 µM,> 100 µM,> 100 µM,–,–
O=C1/C(=C/c2ccc(Cl)cc2)N=C(c2ccccc2)N1C1Nc2cc3c(cc2S1)NC(N1C(=O)/C(=C/c2ccc(Cl)cc2)N=C1c1ccccc1)S3 (stereo unspecified),63.3 µM,> 100 µM,> 100 µM,> 100 µM,–,> 100 µM,> 100 µM,2.47 µM,–,> 100 µM,> 100 µM,> 100 µM
C[N+](C)(C)Cc1c(CC#N)[nH]c2ccccc12,> 100 µM,> 100 µM,> 100 µM,> 100 µM,> 100 µM,> 100 µM,> 100 µM,> 100 µM,> 100 µM,> 100 µM,–,–
Cc1ccc([N+](=O)[O-])cc1NC(=O)C(=O)Cc1cc(=O)oc2cc(O)ccc12,> 100 µM,> 100 µM,> 100 µM,> 100 µM,> 100 µM,> 100 µM,> 100 µM,> 100 µM,> 100 µM,> 100 µM,–,–
O=c1[nH]c(=O)n(C2OC(CO)C(O)C2O)cc1OCCc1ccccc1 (stereo unspecified),> 100 µM,> 100 µM,> 100 µM,> 100 µM,> 100 µM,> 100 µM,–,> 100 µM,–,> 100 µM,> 100 µM,> 100 µM
O/N=C1/CCCCCC1NO (stereo unspecified),–,> 100 µM,> 100 µM,> 100 µM,> 100 µM,> 100 µM,–,–,–,> 100 µM,> 100 µM,> 100 µM
Cc1nc2c(n1CCC(C)C)C(=O)c1ccccc1C2=O,55.9 µM,> 100 µM,92 µM,25.4 µM,> 100 µM,38.8 µM,69.1 µM,28.1 µM,63 µM,> 100 µM,–,–
CCCC(=O)/C=C/S/C=C/C(=O)CCC,4.2 µM,43.2 µM,10.6 µM,27 µM,> 100 µM,18.7 µM,–,–,83.6 µM,8.22 µM,> 100 µM,–
CNC(=O)c1n[nH]n(Cc2ccccc2)c1=S,–,> 100 µM,> 100 µM,–,> 100 µM,> 100 µM,> 100 µM,–,> 100 µM,> 100 µM,> 100 µM,> 100 µM
